Laboratory results taken from US20040259823A1, “Cationic amphiphiles as transfection vehicles” (priority 2001, published 2004).

Legend:
Format in all cases: cell-based
[1] = tested on: COS-7 and HepG2 cells; assay: Transfection with pCMV GFP plasmid, % GFP positive cells by FACS (cell line not given); conditions: cell line and helper lipid not given
Procedure: (§1) Transfections were carried out following standard protocols as is described in EP 0755924. In numerous publications variations of transfection protocols are given. A person acquainted with the field of non-viral transfections, in particular transfections using cationic amphiphiles will be able to use the cationic amphiphiles of the invention in transfection methods known per se. In standard experiments COS-7 cells are transfected with plasmid DNA containing the β-galactosidase reporter gene. Upon successful transfection the cell produces the enzyme β-galactosidase whose activity can be easily measured. Other plasmids comprising alternative reporter genes such as the gene encoding Green Fluorescent Protein or Chloroamphenicol Acetyl Transferase are suited as well. For analyzing stable transfection a plasmid containing the neomycin resistance gene can be used. Toxicity of the cationic amphiphiles towards the cells can be monitored qualitatively and quantitatively by visual inspection of the cells and by a protein determination.
(§2) A solution of cationic amphiphile in a 50/50 molar ratio with DOPE, DOPC or cholesterol in chloroform was dried under a stream of nitrogen. The residual solvent was removed under vacuum. The lipid film was hydrated in water at room temperature and sonicated to clarity in a bath sonicator immediately before use.
(§3) A 4.7 kb pair plasmid containing the GFP reporter gene under control of the cytomegalovirus immediate early gene promoter/enhancer (pCMV GFP).DNA was isolated from E. coli using a Qiagen Plasmid Kit (QIAGEN Inc, USA). The plasmid concentration was determined by measuring the absoption at 260 nm using the relation 1.0 OD=50 μg/ml. The OD260/OD280 value was 1.95.
(§4) COS-7 and HepG2 cells were cultured in Dulbecco's Modified Eagle Medium (DMEM Gibco The Netherlands) containing 7% of fetal calf serum, 2 mM L-Glutamine, 100 units/ml of penicilin and […] of streptomycin at 37° C. in CO2/air (1:19).
(§5) Cells (1×10^5 cells/well) were seeded in 12-well plates and were allowed to grow overnight.
(§6) The complex of cationic amphiphile/helper lipid (1:1) with pCMV GFP was prepared at the charge ratio 2.5:1 (15 nmol lipid and 1 μg DNA), in 100 μl 10 mM HEPES (pH=7.4, 150 mM NaCl). After 10-15 min incubation at room temperature, the resulting complex was diluted in 1 ml medium (DMEM) and 0.5 ml of the mixture was added to the cells and incubated for 4 h at 37° C. The transfection efficiency expressed as a percentage of GFP positive cells was measured by FACS (Fluorescence Activated Cell Soorting) 48 hours after the transfection.
(§7) Control wells underwent identical steps except that no cationic amphiphile was added.

[2] = tested on: COS-7 and HepG2 cells; assay: Cell survival after transfection (cell line not given); conditions: cell line and helper lipid not given; for % surv / % surv mean: Table 11
Procedure: as §1, §4, §5, §6, §7

[3] = tested on: HepG2; assay: Transfection with pCMV GFP plasmid, % GFP positive cells by FACS (Table 3); conditions: HepG2, DOPE
Procedure: as §1, §2, §3, §4, §5, §6, §7

[4] = tested on: HepG2; assay: Cell survival after transfection (Table 3); conditions: HepG2, DOPE; further: tested at 6.8 µM
Procedure: as §1, §4, §5, §6, §7
Wherever % surv mean is given: tested at 6.8 µM.

CCCCCCCC/C=C\CCCCCCCCC(CCCCCCCC/C=C\CCCCCCCC)c1cc[n+](C)cc1.[Cl-] [S2, reference compound]
% TE ([1]; Table 1): 25.17% | % TE ([1]; Table 2): 16.27% | % TE ([1]; Table 7): 51.9% | % TE ([1]; Table 8): 12.91% | % TE ([1]; Table 9): 7.55% | % TE ([1]; Table 10): 1.78% | % TE ([1]; Table 11, first value): 41.2% | % TE mean ([1]; Table 11): 42.8% | % TE ([1]; Table 11, second value): 44.4% | % surv cells ([2]; Table 1): 62.6% | % surv cells ([2]; Table 2): 43.38% | % surv cells ([2]; Table 7): 82.51% | % surv cells ([2]; Table 8): 60.78% | % surv cells ([2]; Table 9): 65.19% | % surv cells ([2]; Table 10): 21.81% | % surv ([2]; first value): 87.64% | % surv mean [2]: 87.24% | % surv ([2]; second value): 86.84%

CCCCCCCC/C=C\CCCCCCCC[n+]1ccc(CCCCCCCCCCCCCCCCCCC)cc1.[Cl-] [SF14, 1-(9′-cis-octadecenyl)4nonadecyl-pyridinium Chloride]
% TE ([1]; Table 4): 7.72% | % TE ([1]; Table 5): 2.79% | % TE ([1]; Table 6): 1.6% | % TE ([1]; Table 11, first value): 2.41% | % TE mean ([1]; Table 11): 3.1% | % TE ([1]; Table 11, second value): 3.78% | % surv cells ([2]; Table 4): 78.64% | % surv cells ([2]; Table 5): 87.81% | % surv cells ([2]; Table 6): 93.14% | % surv ([2]; first value): 88.63% | % surv mean [2]: 87.805% | % surv ([2]; second value): 86.98%

CCCCCCCC/C=C\CCCCCCCC[n+]1ccc(CCCCCCCCCCCCC)cc1.[Cl-] [SF30, 1-(9′-cis-octadecenyl)-4-tridecyl-pyridinium Chloride]
% TE ([1]; Table 1): 9.73% | % TE ([1]; Table 2): 16.61% | % TE ([1]; Table 7): 13.61% | % TE ([1]; Table 8): 3.09% | % TE ([1]; Table 9): 13.61% | % TE ([1]; Table 10): 5.32% | % surv cells ([2]; Table 1): 78.45% | % surv cells ([2]; Table 2): 46.45% | % surv cells ([2]; Table 7): 84.28% | % surv cells ([2]; Table 8): 75.35% | % surv cells ([2]; Table 9): 84.28% | % surv cells ([2]; Table 10): 60.16%

CCCCCCCCCCCCCc1cc[n+](CCCCCCCC)cc1.[Cl-] [SF32, 1-octyl-4-tridecyl-pyridinium Chloride]
% TE ([1]; Table 1): 0.83% | % TE ([1]; Table 2): 6.99% | % TE ([1]; Table 7): 1.56% | % TE ([1]; Table 8): 4.44% | % TE ([1]; Table 9): 5.19% | % TE ([1]; Table 10): 2.19% | % surv cells ([2]; Table 1): 71.07% | % surv cells ([2]; Table 2): 44.08% | % surv cells ([2]; Table 7): 81.56% | % surv cells ([2]; Table 8): 72.1% | % surv cells ([2]; Table 9): 56.32% | % surv cells ([2]; Table 10): 78.75%

CCCCCCCCCCCCCc1cc[n+](CCCCCCCCCC)cc1.[Cl-] [SF33, 1-decyl-4-tridecyl-pyridinium Chloride]
% TE ([1]; Table 1): 3.07% | % TE ([1]; Table 2): 9.71% | % TE ([1]; Table 7): 0.05% | % TE ([1]; Table 8): 3.82% | % TE ([1]; Table 9): 3.85% | % TE ([1]; Table 10): 5.77% | % surv cells ([2]; Table 1): 78.47% | % surv cells ([2]; Table 2): 39.82% | % surv cells ([2]; Table 7): 87.79% | % surv cells ([2]; Table 8): 75.05% | % surv cells ([2]; Table 9): 68.99% | % surv cells ([2]; Table 10): 69.94%

CCCCCCCCCCCCCc1cc[n+](CCCCCCCCCCCC)cc1.[Cl-] [SF34, 1-dodecyl-4-tridecyl-pyridinium Chloride]
% TE ([1]; Table 1): 13.51% | % TE ([1]; Table 2): 7.13% | % TE ([1]; Table 7): 4.3% | % TE ([1]; Table 8): 4.77% | % TE ([1]; Table 9): 4.3% | % TE ([1]; Table 10): 6.26% | % surv cells ([2]; Table 1): 56.91% | % surv cells ([2]; Table 2): 40.88% | % surv cells ([2]; Table 7): 84.47% | % surv cells ([2]; Table 8): 50.43% | % surv cells ([2]; Table 9): 68.01% | % surv cells ([2]; Table 10): 67.89%

CCCCCCCCCCCCCC[n+]1ccc(CCCCCCCCCCCCC)cc1.[Cl-] [SF35, 1-tetradecyl-4-tridecyl-pyridinium Chloride]
% TE ([1]; Table 1): 18.92% | % TE ([1]; Table 2): 10.48% | % TE ([1]; Table 7): 6.4% | % TE ([1]; Table 8): 3.23% | % TE ([1]; Table 9): 3.32% | % TE ([1]; Table 10): 3.23% | % surv cells ([2]; Table 1): 65.49% | % surv cells ([2]; Table 2): 42.35% | % surv cells ([2]; Table 7): 82.58% | % surv cells ([2]; Table 8): 72.37% | % surv cells ([2]; Table 9): 68.67% | % surv cells ([2]; Table 10): 70.39%

CCCCCCCCCCCCCCCC[n+]1ccc(CCCCCCCCCCCCC)cc1.[Cl-] [SF36, 1-hexadecyl-4-tridecyl-pyridinium Chloride]
% TE ([1]; Table 1): 1.39% | % TE ([1]; Table 2): 15.06% | % TE ([1]; Table 7): 25.36% | % TE ([1]; Table 8): 4.46% | % TE ([1]; Table 9): 2.73% | % TE ([1]; Table 10): 1.75% | % surv cells ([2]; Table 1): 76.77% | % surv cells ([2]; Table 2): 36.8% | % surv cells ([2]; Table 7): 84.28% | % surv cells ([2]; Table 8): 64.88% | % surv cells ([2]; Table 9): 63.36% | % surv cells ([2]; Table 10): 37.75%

CCCCCCCCCCCCCCCCCC[n+]1ccc(CCCCCCCCCCCCC)cc1.[Cl-] [SF37, 1-stearyl-4-tridecyl-pyridinium Chloride]
% TE ([1]; Table 1): 4.4% | % TE ([1]; Table 2): 18.39% | % TE ([1]; Table 7): 8.5% | % TE ([1]; Table 8): 5.02% | % TE ([1]; Table 9): 2.95% | % TE ([1]; Table 10): 2.74% | % surv cells ([2]; Table 1): 70.04% | % surv cells ([2]; Table 2): 41.67% | % surv cells ([2]; Table 7): 75.65% | % surv cells ([2]; Table 8): 70.7% | % surv cells ([2]; Table 9): 64.58% | % surv cells ([2]; Table 10): 63.85%

CCCCCCCC/C=C\CCCCCCCC[n+]1ccc(C)cc1.[Cl-] [SF38, 1-(9′-cis-octadecenyl)-4-methyl-pyridinium Chloride]
% TE ([3]; first value): 0.82% | % TE mean [3]: 0.555% | % TE ([3]; second value): 0.29% | % surv cells ([4]; first value): 23.6% | % surv cells Mean [4]: 22.05% | % surv cells ([4]; second value): 20.5% | % TE ([1]; Table 4): 5.43% | % TE ([1]; Table 6): 0.47% | % surv cells ([2]; Table 4): 63.19% | % surv cells ([2]; Table 6): 94.13%

CCCCCCCC/C=C\CCCCCCCC[n+]1ccc(CCC)cc1.[Cl-] [SF39, 1-(9′-cis-octadecenyl)-4-propyl-pyridinium Chloride]
% TE ([3]; first value): 0.1% | % TE mean [3]: 0.085% | % TE ([3]; second value): 0.07% | % surv cells ([4]; first value): 24.55% | % surv cells Mean [4]: 28.015% | % surv cells ([4]; second value): 31.48% | % TE ([1]; Table 4): 4.38% | % TE ([1]; Table 6): 0.84% | % surv cells ([2]; Table 4): 66.48% | % surv cells ([2]; Table 6): 92.2%

CCCCCCCC/C=C\CCCCCCCC[n+]1ccc(CCCCC)cc1.[Cl-] [SF40, 1-(9′-cis-octadecenyl)-4-pentyl-pyridinium Chloride]
% TE ([3]; first value): 0.04% | % TE mean [3]: 0.09% | % TE ([3]; second value): 0.14% | % surv cells ([4]; first value): 30.55% | % surv cells Mean [4]: 30.09% | % surv cells ([4]; second value): 29.63% | % TE ([1]; Table 4): 5.18% | % TE ([1]; Table 6): 0.16% | % surv cells ([2]; Table 4): 69.87% | % surv cells ([2]; Table 6): 94.54%

CCCCCCCC/C=C\CCCCCCCC[n+]1ccc(CCCCCCC)cc1.[Cl-] [SF41, 1-(9′-cis-octadecenyl)-4-heptyl-pyridinium Chloride]
% TE ([3]; first value): 0.07% | % TE mean [3]: 0.085% | % TE ([3]; second value): 0.1% | % surv cells ([4]; first value): 28.65% | % surv cells Mean [4]: 34.62% | % surv cells ([4]; second value): 40.59% | % TE ([1]; Table 4): 7.13% | % TE ([1]; Table 6): 3.44% | % surv cells ([2]; Table 4): 60.54% | % surv cells ([2]; Table 6): 89.11%

CCCCCCCC/C=C\CCCCCCCC[n+]1ccc(CCCCCCCCC)cc1.[Cl-] [SF42, 1-(9′-cis-octadecenyl)-4-nonyl-pyridinium Chloride]
% TE ([3]; first value): 1.2% | % TE mean [3]: 0.925% | % TE ([3]; second value): 0.65% | % surv cells ([4]; first value): 40.1% | % surv cells Mean [4]: 33.785% | % surv cells ([4]; second value): 27.47% | % TE ([1]; Table 4): 5.05% | % TE ([1]; Table 5): 0.81% | % TE ([1]; Table 6): 5.13% | % TE ([1]; Table 11, first value): 8.41% | % TE mean ([1]; Table 11): 7.95% | % TE ([1]; Table 11, second value): 7.49% | % surv cells ([2]; Table 4): 70.14% | % surv cells ([2]; Table 5): 75.02% | % surv cells ([2]; Table 6): 93.49% | % surv ([2]; first value): 86.37% | % surv mean [2]: 84.435% | % surv ([2]; second value): 82.5%
